Experimental data as given in patent publication US8835629B2, “Anti-cancer agents” (The Walter and Eliza Hall Institute of Medical Research, priority 2010, dated 2014).
“Also recorded” adds a separate entry of the source.

Legend:
MCF-7 [1] = assay: Antimitotic effects (G2/M cell cycle block, DNA staining, ModFit) on MCF-7; format: cell-based, human
From the text: For the initial studies two colon carcinoma cell lines (LIM1215 and SW480) and two breast cancer cell lines (MDA-MB-231 and MCF-7) were used. Taxol was used as comparator in these experiments (Table 1).

MDA-MB-231 = assay: MTT cell proliferation assay, MDA-MB-231; format: cell-based; details: 72 h; MDA-MB-231 human breast carcinoma; MTT after 3 days of incubation; read-out: IC50, inhibition of proliferation
Protocol: (§1) Compound 2 was tested on a series of cell lines to determine its activity and selectivity (Table 2). Cell proliferation was measured using the MTT assay (for protocol see Example 2.6) after 3 days of incubation with the inhibitor.
(§2) • Cells plated at […] in 100 μl medium+5% FCS (+Adds^1): • Cells incubated overnight: • Titrate inhibitors in a fresh plate in 150 μl medium • Transfer 100 μl titrated compounds to matching wells of the cell plate. • Incubate a further 4 days: • Add 10 μl MTS^2 or MTT^3 for 1.5 to 2 hours and read on Multiscanner (wavelengths 492/690) ^1 Additives for culture of LIM cell lines: 10 μM thioglycerol, 0.025 U/ml insulin, 1 μg/ml hydrocortisone. ^2 3-(4,5-dimethylthiazol-2-yl)-5-(3-carboxymethoxyphenyl)-2-(4-sulfophenyl)-2H-tetrazolium. ^3 3-(4,5-Dimethylthiazol-2-yl)-2,5-diphenyltetrazolium bromide
(§3) Cells are trypsinized and washed ×2 in medium+5% FCS and plate out at 10^4 cells per well in 100 μl.
(§4) Incubate plates o/n 37° C.+5%-10% CO2 incubator.
(§5) Inhibitors are dissolved in DMSO to make 10 mM stocks and titrated in a 96 well plate in duplicate to use as the stock for the test plate. […]
(§6) Read OD of plates on Thermo Multiskan Ex, at 560/690 nm.

[2] = system: H1437 (non-small cell lung cancer cell line) tumours; assay: Tumor xenograft study with H1437; format: in vivo, Balb/c nu/nu mice
Protocol: FIG. 10: H1437 tumor growth in nude mice. Tumor diameters were measured with external callipers every three days and tumor volume calculated with the formula: π/6×(L×W2).
Mice: Balb/c nu/nu male; 8 controls and 8 treated; 5 weeks old.
Cells inoculated: H1437 (non-small cell lung cancer cell line) at 2×10^6 cells/tumour; two tumours per mouse.
Dose: Compound 2 at 20 mg/kg=100 μl of 4 mg/ml in water for injection per 20 g mouse. Control mice were injected with 100 μl water for injection.
Treatment and monitoring: Treatment commenced at Day 5 after inoculation. Mice were injected SC in abdomen three times per week, on alternating sides. Mice were weighed; tumour diameters measured in two dimensions and the health of the mice was monitored. Injections correspond to data points on the plots, with an additional treatment on Day 14 when no measurements were made.

MCF-7 [3] = assay: MTT cell proliferation assay, MCF-7; format: cell-based; details: MCF7, 72 h; MCF-7 human breast carcinoma; MTT after 3 days of incubation; read-out: IC50, inhibition of proliferation
Protocol: as §1, §2, §3, §4, §5, §6

[4] = Pharmacokinetics of Compound 2 in mouse plasma (RP-HPLC); format: in vivo; details: mice
Protocol: FIG. 6: Plots of plasma concentrations of compound 2 in mice following a single subcutaneous dose of 50 mg/kg. Each point corresponds to an individual mouse. A: Semi-log plot of calculated concentrations of Peak 1 values. B: Semi-log plot of values including all metabolite peaks. C: Mean and se values comparing Peak 1 only with all peaks.
The pharmacokinetic parameters for Compound 2 were determined following injection into mice.
Mouse blood was collected by cardiac puncture after anaesthesia by CO2 gas. Mice were subsequently euthanized. The blood was transferred to an EDTA tube to prevent clotting and the plasma collected after separation by centrifugation. For each sample 25 μl Plasma Was Added To 75 μl Cold 0.1% TFA (v/v) With 5 μM Hydrocortisone (HC) As an internal standard. These processed samples were stored at −20° C. until required. On thawing they were clarified by centrifugation and the extracts were analyzed on RP-HPLC.
Each 100 μl plasma extract was separated on a Zorbax SB-C18, 2.1×150 mm, 5μ column using a linear 50 min gradient of acetonitrile in 0.1% (v/v) TFA at a flow rate of 0.1 ml per minute and a column temperature of 45° C. Detection was at 250 nm.
The concentration of drug in the plasma was determined by the internal standard method of calibration by comparing the ratios of drug to HC peak areas relative to the known standards. Plasma concentrations of compound 2 in the mice from one pharmacokinetics experiment are plotted in FIG. 6

[5] = Dose escalation in mice (tolerability and toxicity); format: in vivo
Protocol: Compound 1 was initially tested for tolerability and toxicity in mice. C57Bl/6 mice (aged 8-12 weeks) were injected subcutaneously with escalating doses of Compound 1 in a constant volume of DMSO. Mice were sacrificed 24 hrs post-injection. There were no adverse effects of doses up to 80 mg/kg within this time-frame. Thus the compound is well tolerated at doses that far exceed the IC50 observed “in vitro”.
These minor skin lesions healed readily within 2-3 days.

COc1ccc(CNc2nc(NCc3ccc(CN)cc3)nc(NN3CC(=O)NC3=O)n2)cc1 (single isomer, unassigned) [Compound 2, 1-[4-(4-aminomethyl-benzylamino)-6-(4-methoxybenzylamino)-{1,3,5}-triazin-2-yl-amino]-imidazolidine-2,4-dione]
% of Taxol (proportion of cells in G2M test/proportion of cells in G2M Taxol) (MCF-7 [1]; 24 hrs, standard 1 μM Taxol): 102%
IC50 (MCF-7 [1]; Homo sapiens, MCF7, inhibitors added to cells in log-growth for 24 hrs, read-out: IC50 for progression through the cell cycle): 9 nM
IC50 (MDA-MB-231): 10 nM
Tumour growth (tumour volume) ([2]; 20 mg/kg SC three times per week from day 5, terminated at 26 days): Clear difference; also recorded: significant difference in volume between control and treated tumours
Size of dissected tumours ([2]; 20 mg/kg three times per week, after sacrifice): clear difference in size
IC50 (MCF-7 [3]): 10 nM
Time therapeutically significant concentrations are maintained in the serum [4]: up to 10 hr
Plateau concentration in the blood stream ([4]; 50 mg/kg in aqueous solution, single subcutaneous dose): 60 µM
Level remaining in the blood stream for 6-10 hours ([4]; 50 mg/kg in aqueous solution, for 6-10 hours): up to 6 μM
half-life ([4]; mouse, plasma, subcutaneous, 50 mg/kg in aqueous solution, read-out: Elimination half-life (converted)): ~1.5 h
Time for healing of minor skin lesions ([5]; BALB/c nude, mouse, in vivo, 20 mg/kg): 2 to 3 days
Effect at injection site ([5]; at 21.5 and 64.5 mg/kg): indications of skin thinning at the injection site in some mice
Doses with no adverse effects in outward health or behaviour ([5]; mice, for 4 days): up to 64.5 mg/kg
Skin effect in BALB/c nude mice ([5]; mouse, in vivo, 20 mg/kg): some skin lesions
